From patent US7446199B2, “Compositions useful as inhibitors of protein kinases” (Vertex Pharmaceuticals Incorporated, priority 2003, dated 2008)

Assays:
Format in all cases: biochemical
[1] = target: c-Met (Homo sapiens, UniProt P08581); test: Ki determination for the inhibition of c-Met, coupled enzyme system; settings: 200 μM ATP, 10 μM polyGluTyr, 80 nM c-Met, 30° C.
Method: Compounds were screened for their ability to inhibit c-Met kinase activity using a standard coupled enzyme system (Fox et al., Protein Sci. 1998, 7, 2249). Reactions were carried out in a solution containing 100 mM HEPES (pH 7.5), 10 mM MgCl2, 25 mM NaCl, 300 μM NADH, 1 mM DTT, and 1.5% DMSO. Final substrate concentrations in the assay were 200 μM ATP (Sigma Chemicals, St Louis, Mo.) and 10 μM polyGluTyr (Sigma Chemical Company, St. Louis). Reactions were carried out at 30° C. and 80 nM c-Met. Final concentrations of the components of the coupled enzyme system were 2.5 mM phosphoenolpyruvate, 300 μM NADH, 30 μg/ml pyruvate kinase and 10 μg/ml lactate dehydrogenase.
An assay stock buffer solution was prepared containing all of the reagents listed above with the exception of ATP and a test compound of the present invention. The assay stock buffer solution (175 μl) was incubated in a 96 well plate with 5 μl of the test compound of the present invention at final concentrations spanning 0.006 μM to 12.5 μM at 30° C. for 10 minutes. Typically, a 12-point titration was conducted by preparing serial dilutions (from 10 mM compound stocks) with DMSO of the test compounds of the present invention in daughter plates. The reaction was initiated by the addition of 20 μl of ATP (final concentration 200 μM). Rates of reaction were obtained using a Molecular Devices Spectramax plate reader (Sunnyvale, Calif.) over 10 minutes at 30° C. The Ki values were determined from the rate data as a function of inhibitor concentration.

[2] = target: T1, FLT-3 (Homo sapiens, UniProt P36888); test: Inhibition of FLT-3, radiometric filter-binding assay; settings: 90 μM ATP, 0.5 mg/mL pE4Y, room temperature
T1 construct: 0.02% BSA and 3 nM FLT-3
T1 sequence (P36888 27-993): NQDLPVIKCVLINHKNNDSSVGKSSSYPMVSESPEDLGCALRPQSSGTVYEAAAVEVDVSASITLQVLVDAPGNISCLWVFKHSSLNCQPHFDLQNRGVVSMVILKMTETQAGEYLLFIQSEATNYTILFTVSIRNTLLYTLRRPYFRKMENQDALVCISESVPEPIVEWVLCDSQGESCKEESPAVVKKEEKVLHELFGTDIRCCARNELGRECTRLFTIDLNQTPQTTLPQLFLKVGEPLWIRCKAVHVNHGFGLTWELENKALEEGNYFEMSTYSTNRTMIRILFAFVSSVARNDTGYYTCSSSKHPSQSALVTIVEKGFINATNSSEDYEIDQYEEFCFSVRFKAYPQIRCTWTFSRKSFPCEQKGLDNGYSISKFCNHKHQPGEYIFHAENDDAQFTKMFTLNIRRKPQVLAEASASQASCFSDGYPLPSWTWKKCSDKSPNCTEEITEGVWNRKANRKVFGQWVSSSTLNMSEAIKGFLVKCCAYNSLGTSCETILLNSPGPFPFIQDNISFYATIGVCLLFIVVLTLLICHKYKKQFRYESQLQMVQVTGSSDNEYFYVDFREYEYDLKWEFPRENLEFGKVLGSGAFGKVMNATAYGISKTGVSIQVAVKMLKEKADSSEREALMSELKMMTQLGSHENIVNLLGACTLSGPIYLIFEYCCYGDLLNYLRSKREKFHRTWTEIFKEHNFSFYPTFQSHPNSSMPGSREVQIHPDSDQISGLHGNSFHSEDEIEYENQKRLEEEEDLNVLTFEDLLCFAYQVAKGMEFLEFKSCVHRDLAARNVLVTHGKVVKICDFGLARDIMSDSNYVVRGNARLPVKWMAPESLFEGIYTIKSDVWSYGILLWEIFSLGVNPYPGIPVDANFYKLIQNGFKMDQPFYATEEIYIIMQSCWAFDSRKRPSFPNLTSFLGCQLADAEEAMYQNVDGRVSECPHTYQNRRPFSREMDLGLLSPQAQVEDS
Method: (§1) Compounds were screened for their ability to inhibit FLT-3 activity using a radiometric filter-binding assay. This assay monitors the ^33P incorporation into a substrate poly(Glu, Tyr) 4:1 (pE4Y). Reactions were carried out in a solution containing 100 mM HEPES (pH 7.5), 10 mM MgCl2, 25 mM NaCl, 1 mM DTT, 0.01% BSA and 2.5% DMSO. Final substrate concentrations in the assay were 90 μM ATP and 0.5 mg/mL pE4Y (both from Sigma Chemicals, St Louis, Mo.). The final concentration of compounds is generally between 0.01 and 5 μM. Typically, a 12-point titration was conducted by preparing serial dilutions from 10 mM DMSO stock of test compound. Reactions were carried out at room temperature.
Two assay solutions were prepared. Solution 1 contains 100 mM HEPES (pH 7.5), 10 mM MgCl2, 25 mM NaCl, 1 mg/ml pE4Y and 180 μM ATP(containing 0.3 μCi of [γ-^33P]ATP for each reaction). Solution 2 contains 100 mM HEPES (pH 7.5), 10 mM MgCl2, 25 mM NaCl, 2 mM DTT, 0.02% BSA and 3 nM FLT-3. The assay was run on a 96 well plate by mixing 50 μL each of Solution 1 and […] of the test compounds. The reaction was initiated with Solution2. After incubation for 20 minutes at room temperature, the reaction was stopped with 50 μL of 20% TCA containing 0.4 mM of ATP. All of the reaction volume was then transferred to a filter plate and washed with 5% TCA by a Harvester9600 from TOMTEC (Hamden, Conn.). The amount of ^33P incorporation into pE4y was analyzed by a Packard TopCount Microplate Scintillation Counter (Meriden, Conn.). The data was fitted using Prism software to get an IC50 or Ki.

[3] = target: T2, JAK3 (Homo sapiens, UniProt P52333); test: JAK3 inhibition assay (ELISA, Poly (Glu, Ala, Tyr) coated plates); settings: 2 mM ATP, 60 minutes at 30° C.
T2 sequence (P52333 1-1124): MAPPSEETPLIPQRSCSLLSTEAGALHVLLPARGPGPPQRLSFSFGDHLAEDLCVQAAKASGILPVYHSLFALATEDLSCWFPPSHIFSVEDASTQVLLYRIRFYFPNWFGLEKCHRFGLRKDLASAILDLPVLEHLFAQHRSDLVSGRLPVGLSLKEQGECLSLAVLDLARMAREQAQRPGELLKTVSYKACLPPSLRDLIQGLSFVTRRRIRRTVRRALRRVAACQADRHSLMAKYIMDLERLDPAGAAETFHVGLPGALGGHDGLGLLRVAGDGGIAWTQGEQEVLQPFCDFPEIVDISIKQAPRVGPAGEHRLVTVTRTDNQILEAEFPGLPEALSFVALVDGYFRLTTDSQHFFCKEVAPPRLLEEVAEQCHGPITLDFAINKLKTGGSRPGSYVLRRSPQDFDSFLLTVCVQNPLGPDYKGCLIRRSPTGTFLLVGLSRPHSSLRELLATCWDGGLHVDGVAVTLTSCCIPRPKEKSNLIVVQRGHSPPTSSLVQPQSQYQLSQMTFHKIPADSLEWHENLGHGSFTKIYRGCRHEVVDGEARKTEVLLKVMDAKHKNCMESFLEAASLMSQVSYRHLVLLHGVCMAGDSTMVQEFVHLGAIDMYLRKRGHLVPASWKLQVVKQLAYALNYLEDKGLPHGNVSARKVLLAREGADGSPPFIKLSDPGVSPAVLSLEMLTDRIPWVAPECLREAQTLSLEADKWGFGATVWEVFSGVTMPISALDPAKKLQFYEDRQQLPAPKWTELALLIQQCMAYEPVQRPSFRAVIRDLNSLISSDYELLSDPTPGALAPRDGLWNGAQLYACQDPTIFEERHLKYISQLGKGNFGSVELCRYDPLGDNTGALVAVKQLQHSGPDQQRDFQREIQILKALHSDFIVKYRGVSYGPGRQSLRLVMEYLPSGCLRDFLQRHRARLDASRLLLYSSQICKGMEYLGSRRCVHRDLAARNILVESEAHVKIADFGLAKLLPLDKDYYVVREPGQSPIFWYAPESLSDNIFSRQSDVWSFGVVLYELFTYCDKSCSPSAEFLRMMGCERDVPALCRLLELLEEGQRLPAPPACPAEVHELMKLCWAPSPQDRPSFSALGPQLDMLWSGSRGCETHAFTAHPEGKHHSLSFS
Method: Compound inhibition of JAK3 was assayed by the method described by G. R. Brown, et al., Bioorg. Med. Chem. Lett. 2000, vol. 10, pp 575-579 in the following manner. Into Maxisorb plates, previously coated at 4° C. with Poly (Glu, Ala, Tyr) 6:3:1 then washed with phosphate buffered saline 0.05% and Tween (PBST), was added 2 mM ATP, 5 mM MgCl2, and a solution of compound in DMSO. The reaction was started with JAK enzyme and the plates incubated for 60 minutes at 30° C. The plates were then washed with PBST, […] HRP-Conjugated 4G10 antibody was added, and the plate incubated for 90 minutes at 30° C. The plate was again washed with PBST, […] TMB solution is added, and the plates were incubated for another 30 minutes at 30° C. Sulfuric acid ([…] of 1M) was added to stop the reaction and the plate is read at 450 nm to obtain the optical densities for analysis to determine IC50 values.

[4] = target: T3, c-KIT (Homo sapiens, UniProt P10721); test: Inhibition of c-KIT, radiometric filter-binding assay; settings: 700 μM ATP, 0.5 mg/mL pE4Y, room temperature
T3 construct: 0.02% BSA and 25 nM c-KIT
T3 sequence (P10721 26-976): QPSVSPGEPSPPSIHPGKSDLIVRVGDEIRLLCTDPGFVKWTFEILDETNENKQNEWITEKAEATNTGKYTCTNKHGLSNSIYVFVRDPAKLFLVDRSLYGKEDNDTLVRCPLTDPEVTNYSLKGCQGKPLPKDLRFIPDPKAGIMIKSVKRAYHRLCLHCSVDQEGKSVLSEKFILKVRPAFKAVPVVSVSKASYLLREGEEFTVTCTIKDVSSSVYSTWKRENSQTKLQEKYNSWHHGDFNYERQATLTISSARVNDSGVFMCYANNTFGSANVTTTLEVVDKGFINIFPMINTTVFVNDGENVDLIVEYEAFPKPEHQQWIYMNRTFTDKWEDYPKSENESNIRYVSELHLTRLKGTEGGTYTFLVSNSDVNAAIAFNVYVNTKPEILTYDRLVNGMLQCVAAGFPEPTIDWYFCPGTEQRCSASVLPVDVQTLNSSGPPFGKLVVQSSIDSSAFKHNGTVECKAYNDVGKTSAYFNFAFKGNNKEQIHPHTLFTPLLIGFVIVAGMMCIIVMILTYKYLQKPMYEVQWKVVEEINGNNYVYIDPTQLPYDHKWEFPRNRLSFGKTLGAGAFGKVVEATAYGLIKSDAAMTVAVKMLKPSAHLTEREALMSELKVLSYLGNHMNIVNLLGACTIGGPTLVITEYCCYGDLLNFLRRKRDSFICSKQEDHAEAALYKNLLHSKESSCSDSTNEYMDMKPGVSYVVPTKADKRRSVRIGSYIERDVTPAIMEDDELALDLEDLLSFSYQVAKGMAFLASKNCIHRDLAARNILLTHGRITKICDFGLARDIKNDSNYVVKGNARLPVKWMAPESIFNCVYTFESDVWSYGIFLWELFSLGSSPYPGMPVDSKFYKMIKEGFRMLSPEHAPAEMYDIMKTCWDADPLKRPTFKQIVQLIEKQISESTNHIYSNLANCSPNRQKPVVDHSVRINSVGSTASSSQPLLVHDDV
Method: as §1, with “Compounds are screened for” for “Compounds were screened for”, “to inhibit c-KIT activity using” for “to inhibit FLT-3 activity using”, “(pE4Y). Reactions are carried out” for “(pE4Y). Reactions were carried out”, “assay were 700 μM ATP” for “assay were 90 μM ATP”, “12-point titration is conducted by” for “12-point titration was conducted by”
Two assay solutions are prepared. Solution 1 contains 100 mM HEPES (pH 7.5), 10 mM MgCl2, 25 mM NaCl, 1 mg/ml pE4Y and 1.4 mM ATP(containing 0.5 μCi of [γ-^33P]ATP for each reaction). Solution 2 contains 100 mM HEPES (pH 7.5), 10 mM MgCl2, 25 mM NaCl, 2 mM DTT, 0.02% BSA and 25 nM c-KIT. The assay is run on a 96 well plate by mixing 33 μL of Solution1 and 1.65 μL of the test compounds. The reaction is initiated with 33 μL of Solution2. After incubation for 20 minutes at room temperature, the reaction was stopped with 50 μL of 10% TCA containing 0.2 mM of ATP. All of the reaction volume is then transferred to a filter plate and washed with 5% TCA by a Harvester9600 from TOMTEC (Hamden, Conn.). The amount of ^33P incorporation into pE4y is analyzed by a Packard TopCount Microplate Scintillation Counter (Meriden, Conn.). The data is fitted using Prism software to get an IC50 or Ki.

c-Met, sequence (P08581 25-1390): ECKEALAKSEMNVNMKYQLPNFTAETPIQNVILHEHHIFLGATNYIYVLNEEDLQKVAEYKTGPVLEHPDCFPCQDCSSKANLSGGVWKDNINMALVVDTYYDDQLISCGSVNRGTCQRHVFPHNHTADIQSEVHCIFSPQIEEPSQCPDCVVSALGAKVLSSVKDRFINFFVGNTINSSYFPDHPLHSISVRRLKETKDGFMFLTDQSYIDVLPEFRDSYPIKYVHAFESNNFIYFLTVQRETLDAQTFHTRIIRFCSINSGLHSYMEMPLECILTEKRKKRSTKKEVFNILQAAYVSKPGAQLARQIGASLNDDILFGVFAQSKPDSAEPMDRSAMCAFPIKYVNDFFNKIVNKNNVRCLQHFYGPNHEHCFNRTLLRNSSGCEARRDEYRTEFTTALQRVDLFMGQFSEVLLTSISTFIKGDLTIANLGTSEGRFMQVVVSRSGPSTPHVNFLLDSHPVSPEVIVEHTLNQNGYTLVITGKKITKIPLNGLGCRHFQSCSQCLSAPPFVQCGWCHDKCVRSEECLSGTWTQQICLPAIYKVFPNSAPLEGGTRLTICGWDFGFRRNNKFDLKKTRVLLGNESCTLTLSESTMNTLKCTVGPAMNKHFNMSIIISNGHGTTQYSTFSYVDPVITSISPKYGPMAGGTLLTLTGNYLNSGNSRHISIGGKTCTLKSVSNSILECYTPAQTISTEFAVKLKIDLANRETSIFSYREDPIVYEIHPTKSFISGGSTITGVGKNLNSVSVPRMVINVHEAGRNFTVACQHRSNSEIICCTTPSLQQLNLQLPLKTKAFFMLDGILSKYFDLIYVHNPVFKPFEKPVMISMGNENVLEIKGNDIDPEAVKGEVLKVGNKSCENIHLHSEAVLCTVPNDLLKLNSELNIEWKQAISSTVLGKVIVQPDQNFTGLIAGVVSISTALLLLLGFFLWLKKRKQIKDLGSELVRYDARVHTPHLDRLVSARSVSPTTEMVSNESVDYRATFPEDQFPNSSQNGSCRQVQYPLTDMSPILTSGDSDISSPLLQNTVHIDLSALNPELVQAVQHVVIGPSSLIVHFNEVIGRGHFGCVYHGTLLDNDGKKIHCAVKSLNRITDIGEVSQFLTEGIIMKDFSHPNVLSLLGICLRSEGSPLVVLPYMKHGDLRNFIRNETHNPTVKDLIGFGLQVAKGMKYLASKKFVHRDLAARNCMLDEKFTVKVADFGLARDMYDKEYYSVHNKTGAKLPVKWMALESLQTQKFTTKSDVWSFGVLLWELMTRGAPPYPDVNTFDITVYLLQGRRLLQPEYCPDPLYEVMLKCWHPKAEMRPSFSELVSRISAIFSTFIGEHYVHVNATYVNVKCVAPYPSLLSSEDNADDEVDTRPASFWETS

Ki [1]	Ki [2]	Ki [3]	Ki [4]	SMILES
1000 to 12500 nM	1 to 12.5 µM	–	–	CN(C)Cc1cnc2[nH]cc(-c3oncc3-c3cccc(F)c3F)c2c1 [Compound 54, {3-[4-(2,3-Difluoro-phenyl)-isoxazol-5-yl]-1H-pyrrolo[2,3-b]pyridin-5-ylmethyl}-dimethyl-amine]
< 200 nM	–	1000 to 12500 nM	200 to 1000 nM	OCC1CCN(c2ccc(-c3cnc4[nH]cc(-c5nncn5-c5cccc(F)c5F)c4c3)cn2)CC1 [Compound 120, (5′-{3-[4-(2,3-Difluoro-phenyl)-4H-[1,2,4]triazol-3-yl]-1H-pyrrolo[2,3-b]pyridin-5-yl}-3,4,5,6-tetrahydro-2H-[1,2′]bi-pyridinyl-4-yl)-methanol]
< 200 nM	–	1000 to 12500 nM	200 to 1000 nM	Fc1cccc(-n2cnnc2-c2c[nH]c3ncc(-c4ccc(N5CCOCC5)nc4)cc23)c1F [Compound 121, 3-[4-(2,3-Difluoro-phenyl)-4H-[1,2,4]triazol-3-yl]-5-(6-morpholin-4-yl-pyridin-3-yl)-1H-pyrrolo[2,3-b]pyridine]
< 200 nM	–	1000 to 12500 nM	200 to 1000 nM	C[C@@H]1CN(c2ccc(-c3cnc4[nH]cc(-c5nncn5-c5cccc(F)c5F)c4c3)cn2)C[C@H](C)N1 [Compound 122, 3-[4-(2,3-Difluoro-phenyl)-4H-[1,2,4]triazol-3-yl]-5-[6-(3,5-dimethyl-piperazin-1-yl)-pyridin-3-yl]-1H-pyrrolo [2,3-b]pyridine]
< 200 nM	–	1000 to 12500 nM	200 to 1000 nM	Fc1cccc(-n2cnnc2-c2c[nH]c3ncc(-c4ccc(N5CCC(N6CCCC6)CC5)nc4)cc23)c1F [Compound 123, 5′-{3-[4-(2,3-Difluoro-phenyl)-4H-[1,2,4]triazol-3-yl]-1H-pyrrolo[2,3-b]pyridin-5-yl}-4-pyrrolidin-1-yl-3,4,5,6-tetrahydro-2H-[1,2′]bipyridinyl]
< 200 nM	–	200 to 1000 nM	200 to 1000 nM	Fc1cccc(-n2cnnc2-c2c[nH]c3ncc(-c4ccc(NCC5CCCO5)nc4)cc23)c1F (centres unmarked) [Compound 124, (5-{3-[4-(2,3-Difluoro-phenyl)-4H-[1,2,4]triazol-3-yl]-1H-pyrrolo[2,3-b]pyridin-5-yl}-pyridin-2-yl)-(tetrahydro-furan-2-ylmethyl)-amine]
